Experimental findings from patent CN102775413A, “氨基取代吴茱萸次碱类似物及其合成方法与在制备抗肥胖症药物中的应用” (Sun Yat Sen University, priority 2012, dated 2012) are described below.

Data set [1] deals with FAO rat hepatocytes (FAO大鼠肝细胞). Description: High-fructose-induced fat accumulation in FAO hepatocytes (triglyceride kit and BCA protein kit). The format is cell-based. Particulars: 24 h, Fig. 5.
The subject of data set [2] is 3T3-L1 mouse adipocytes (3T3-L1小鼠脂肪细胞). Description: Triglyceride content of differentiating 3T3-L1 adipocytes (triglyceride assay kit). The format is cell-based.
In a further data set the test system is cells (细胞). Description: Reduction of fat accumulation (general statement, test not specified). It is filed as cell-based. As to conditions: inventors' finding.
A short description of data set [3]: Precipitation from culture medium, microscopy, 20 μM (Example 11, Fig. 6). Particulars: 24 h incubation with cells. It is filed as physicochemical.
Data set [4] is described as follows: Precipitation from culture medium, microscopy, 15 μM (Example 10, Fig. 4). As to conditions: incubated with 3T3-L1 cells 6 days. It is filed as physicochemical.

“Also recorded” adds a separate entry of the source.

Take `O=c1c2ccccc2nc2n1CCc1c-2[nH]c2ccccc12` [R1, 吴茱萸次碱]: the inhibition at 10 µM in data set [1] (Hepatocyte, FAO rat hepatocytes, 10 μM, 25 mM fructose, triglyceride per mg protein vs control, mean of three independent experiments, read-out: reduction of high-fructose-induced fat accumulation) is 72%. The “concentration dependence of inhibition of high-fructose-induced fat accumulation in FAO rat hepatocytes” value in data set [1] (R1 0, 0.3, 10, 20 μM, R17 0, 0.1, 0.3, 10 μM) is recorded as “浓度依赖性地抑制; also recorded: 浓度依赖性地减少”. Also, the “effect on triglyceride content of 3T3-L1 cells vs DMSO control (DM)” value in data set [2] (1 μM, Fig. 1, significance vs DM) is “显著性地降低”. In addition, in data set [2] (Mus musculus, 144 h, 3T3-L1 cells, 3 μM, Day 6, vs DMSO control, mean of three independent experiments, Fig. 2, read-out: reduction of triglyceride content), the inhibition at 3 µM was 34%. Also, in data set [2] (R1 0, 0.3, 1, 3, 10, 15 μM, R17 and R18 0, 0.03, 0.1, 0.3, 1, 3 μM, Fig. 2), the “concentration dependence of reduction of fat accumulation in 3T3-L1 cells” value was “浓度依赖性地减少”. For the same compound, the “reduction of fat accumulation in cells” value in the data set with cells (细胞) is reported as “能减少细胞的脂肪蓄积”. The “precipitation from culture medium” value is reported as “会从培养基中析出; also recorded: 从培养基中析出来” in data set [3] and “从培养基中析出来” in data set [4].
